Experimental data published in BindingDB's records for doi:10.1016/j.bioorg.2006.11.002 (The Josip Juraj Strossmayer University, 2007).

target: T1, Dipeptidyl peptidase 3 (Homo sapiens, UniProt Q9NY33); assay: Enzyme Inhibition Assay; conditions: pH 7.4; 25 °C
T1 sequence (Q9NY33 whole entry): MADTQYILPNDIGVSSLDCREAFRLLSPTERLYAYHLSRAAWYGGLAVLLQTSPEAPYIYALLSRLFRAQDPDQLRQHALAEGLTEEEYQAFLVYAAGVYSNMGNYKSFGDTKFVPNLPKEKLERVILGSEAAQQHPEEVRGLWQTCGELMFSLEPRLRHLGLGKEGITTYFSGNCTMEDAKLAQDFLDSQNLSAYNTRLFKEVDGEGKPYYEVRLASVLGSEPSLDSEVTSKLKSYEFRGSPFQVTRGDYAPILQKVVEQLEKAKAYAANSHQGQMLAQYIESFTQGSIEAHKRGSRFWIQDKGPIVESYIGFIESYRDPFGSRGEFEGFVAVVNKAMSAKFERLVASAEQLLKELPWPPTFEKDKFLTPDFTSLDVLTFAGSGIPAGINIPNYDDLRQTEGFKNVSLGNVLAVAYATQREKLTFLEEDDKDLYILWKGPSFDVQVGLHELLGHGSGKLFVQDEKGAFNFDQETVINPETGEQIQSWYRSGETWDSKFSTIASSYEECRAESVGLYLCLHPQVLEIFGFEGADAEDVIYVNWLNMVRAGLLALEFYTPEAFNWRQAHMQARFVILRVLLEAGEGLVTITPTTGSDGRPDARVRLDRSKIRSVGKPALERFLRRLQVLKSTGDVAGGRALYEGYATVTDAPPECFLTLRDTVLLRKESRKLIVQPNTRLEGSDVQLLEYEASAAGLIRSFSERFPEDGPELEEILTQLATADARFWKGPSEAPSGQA
Description: The IC50 value is defined as the concentration of an inhibitor with caused 50% reduction of the enzyme activity under specific condition. The principle of these assay with synthetic 2-naphthylamide substrates is based on the absorbance at 530nm of a chromophoric complex formed by the reaction product 2-naphthylamine with Fast Blue B salt.

Row | IC50 | SMILES
1 | > 100 µM | C(=C\c1nc2ccccc2[nH]1)/c1ccccc1 [Benzimidazole derivative, 4]
2 | > 1.7 µM | Clc1ccccc1C1C(c2nc3ccc(C4=NCCN4)cc3[nH]2)C(c2ccccc2Cl)C1c1nc2ccc(C3=NCCN3)cc2[nH]1 (stereo not drawn) [2,4-Disubstituted-1,3-di-(5-amidino-2-benzoimidazolyl)-cyclobutane hydrochoride, 4']
3 | 53 µM | N=C(N)c1ccc2[nH]c(-c3c[nH]cn3)nc2c1 [Benzimidazole derivative, 1]
4 | 2.8 µM | c1ccc(C2C(c3nc4ccc(C5=NCCN5)cc4[nH]3)C(c3ccccc3)C2c2nc3ccc(C4=NCCN4)cc3[nH]2)cc1 (stereo not drawn) [2,4-Disubstituted-1,3-di-(5-amidino-2-benzoimidazolyl)-cyclobutane hydrochoride, 1']
5 | 7 µM | N=C(N)c1ccc2nc(C3C(c4ccccc4Cl)C(c4nc5ccc(C(=N)N)cc5[nH]4)C3c3ccccc3Cl)[nH]c2c1 (stereo not drawn) [2,4-Disubstituted-1,3-di-(5-amidino-2-benzoimidazolyl)-cyclobutane hydrochoride, 5']
6 | 10 µM | c1csc(C2C(c3nc4ccc(C5=NCCN5)cc4[nH]3)C(c3cccs3)C2c2nc3ccc(C4=NCCN4)cc3[nH]2)c1 (stereo not drawn) [2,4-Disubstituted-1,3-di-(5-amidino-2-benzoimidazolyl)-cyclobutane hydrochoride, 8']
7 | > 10 µM | CC(C)N=C(N)c1ccc2nc(C3C(c4ccccc4)C(c4nc5ccc(C(=N)NC(C)C)cc5[nH]4)C3c3ccccc3)[nH]c2c1 (stereo not drawn) [2,4-Disubstituted-1,3-di-(5-amidino-2-benzoimidazolyl)-cyclobutane hydrochoride, 3']
8 | 5.6 µM | N=C(N)c1ccc2nc(C3C(c4ccccc4)C(c4nc5ccc(C(=N)N)cc5[nH]4)C3c3ccccc3)[nH]c2c1 (stereo not drawn) [2,4-Disubstituted-1,3-di-(5-amidino-2-benzoimidazolyl)-cyclobutane hydrochoride, 2']
9 | 6 µM | CC(C)N=C(N)c1ccc2nc(C3C(c4ccccc4Cl)C(c4nc5ccc(C(=N)NC(C)C)cc5[nH]4)C3c3ccccc3Cl)[nH]c2c1 (stereo not drawn) [2,4-Disubstituted-1,3-di-(5-amidino-2-benzoimidazolyl)-cyclobutane hydrochoride, 6']
10 | 18 µM | c1ncc(-c2nc3cc(C4=NCCN4)ccc3[nH]2)[nH]1 [Benzimidazole derivative, 2]
11 | 8 µM | c1coc(C2C(c3nc4ccc(C5=NCCN5)cc4[nH]3)C(c3ccco3)C2c2nc3ccc(C4=NCCN4)cc3[nH]2)c1 (stereo not drawn) [2,4-Disubstituted-1,3-di-(5-amidino-2-benzoimidazolyl)-cyclobutane hydrochoride, 7']
12 | 10 µM | C(=Cc1nc2ccc(C3=NCCN3)cc2[nH]1)c1ccccc1 [Benzimidazole derivative, 3]

target: T1, Dipeptidyl peptidase 3; assay: Enzyme Inhibition Assay; conditions: pH 7.4; 25 °C; remark: another data set of the same source

Row | Kd | SMILES
13 | 0.2 µM | c1ccc(C2C(c3nc4ccc(C5=NCCN5)cc4[nH]3)C(c3ccccc3)C2c2nc3ccc(C4=NCCN4)cc3[nH]2)cc1 (stereo not drawn) [2,4-Disubstituted-1,3-di-(5-amidino-2-benzoimidazolyl)-cyclobutane hydrochoride, 1']
